Assay results taken from US20190358182A1, “NOVEL MECHANISM FOR DECREASING OPIOID REWARD” (THE TRUSTEES OF INDIANA UNIVERSITY, priority 2018, published 2019).
“Also recorded” adds a separate entry of the source.

Key:
[1] = Morris Water maze; assay type: in vivo; conditions: FIG. 5A
[2] = tested on: rats; experiment: Single trial conditioned place preference (CPP); assay type: in vivo, rat; conditions: for single trial CPP to the inhibitor alone: acute treatment alone, data not shown; for single trial morphine-induced CPP on acute co-treatment: rats, FIG. 3B, 3C
Source text: FIGS. 3A-3C present data from a conditioned place preference study where one chamber was paired with the drug treatment and the other chamber was paired with the vehicle. Animals are subsequently tested in the drug free state to determine if the drug pairing produced reward or aversion in the animals.

[3] = tested on: rats; conditions: for conditioned place preference to morphine on coadministration: inhibitor 10 mg/kg i.p. × 4 pairings with morphine 6 mg/kg i.p., FIG. 4E, 4F
[4] = cited from earlier work; for pain hypersensitivity / pathological pain: chronic pain models; for nociceptive responding / basal nociceptive thresholds without injury: naïve animals, absence of injury
[5] = tested on: NMDA-induced NO formation; experiment: NMDA-induced NO formation / cGMP levels in primary hippocampal cultures; assay type: cell-based; conditions: for NMDA-induced NO formation: data not shown, Smith et al. (2016); for NMDA-stimulated cGMP levels: primary hippocampal cultures, published in Smith et al. (2016)
[6] = molecular target: PSD95-ERB4 (Homo sapiens, UniProt P78352); experiment: Alphascreen, interaction of PSD95 with unrelated proteins; assay type: binding; conditions: FIG. 2
[7] = tested on: rats; experiment: Radial arm maze task for source and spatial working memory; conditions: MK801 0.1 or 0.2 mg/kg i.p., IC87201 and ZL006 10 mg/kg i.p., 30 min after injection
Experimental: Rats were trained in a radial arm maze task that tests both source and spatial working memory for these experiments. Data are average of three trials 30 min after drug injection (n=6/group).
Memory impairment can confound CPP studies that depend on learning. Experiments were conducted to determine whether PSD95-nNOS inhibitors impair normal memory functions or show favorable side effect profiles compared to NMDAR antagonist MK801. We used a highly sensitive “source memory” task developed by applicants for use in rats to better mimic types of memory that are actually impaired in humans.

[8] = Rota-rod test; assay type: in vivo; conditions: 10-30 mg/kg i.p., FIG. 5B
[9] = Novel object recognition test; assay type: in vivo; conditions: data not shown
[10] = molecular target: T1, PSD95-nNOS (Homo sapiens, UniProt P29475+P78352); experiment: Alphascreen in vitro assay of PSD95-nNOS binding (purified proteins); conditions: purified nNOS and PSD95 proteins, FIG. 2
Source text: Mechanism: We developed an in vitro assay using Alphascreen to establish whether IC87201 and ZL006 directly disrupt interactions between purified nNOS and PSD95 proteins. […] A later group identified ZL006.

[11] = tested on: rats; conditions: cited from earlier work
[12] = tested on: mice; conditions: wild type (WT) but not nNOS −/− mice; cited from earlier work
[13] = tested on: DA efflux in NAc shell; experiment: Fast-scan cyclic voltammetry of electrically evoked DA in NAc shell; assay type: in vivo, rat
Source text: Design and Rationale: Although FSCV can record spontaneously occurring DA transients in behaving animals, the anesthetized preparation is preferred because it provides reliable and reproducible DA signals independent of behavioral activity. In fact, the fluctuating and intermittent nature of behavior-related DA signals (e.g.,) could confound efforts to establish a first-ever characterization of PSD95-nNOS disrupters on DA dynamics. […] Rats are fixed in a stereotaxic frame, and a carbon-fiber working electrode (6 μm diameter) is lowered into NAc shell. A bipolar stimulating electrode is lowered over the ipsilateral MFB to evoke endogenous DA release. An Ag/AgCl reference is placed on the contralateral cortex. […] Voltammograms are obtained every 100 ms at a scan rate of 400 v/s.
The basic design is to collect baseline DA signals (30 min) evoked by MFB stimulation, administer (ip) test drug(s) or vehicle, and collect post-administration evoked DA signals. […] The effects of each compound (injected i.p.) will be monitored for at least 60 min and tested in separate groups of rats (n=10/group). […] To evoke DA release, we apply a biphasic current (60 Hz, 0.4 s, 300 μA) to the stimulating electrode.
Stimulations at 60 Hz are applied every 2 min to ensure renewal of the readily releasable DA pool. Evoked signals are resolved into respective rates for release and uptake, and pre- and postdrug data are compared. Upon completion of recording, the working electrode is used for postcalibration testing to estimate the in vivo concentration of DA. The analysis used to assess changes in DA release and uptake involves a modification of Michaelis-Menten kinetics. We use mathematical modeling that describes the rate of change in evoked DA concentration as the counteracting balance of release and reuptake: d[DA]/dt=[DA]p*f−Vmax/(Km/[DA]+1), where [DA] is the extracellular DA concentration, [DA]p refers to the extracellular DA concentration evoked per stimulus pulse, Vmax represents the Michaelis-Menten term for maximal uptake rate, Km is the Michaelis-Menten term inversely proportional to transporter affinity, and f is the frequency of the stimulation train. Thus, both Km and Vmax are Michaelis-Menten rate constants that describe uptake (see FIG. 7B). [DA]p describes the rate of stimulated release. Km is held constant at a 0.2 μM, the reported value in striatum for anesthetized rodents. [DA]p and Vmax are determined by the above equation in combination with curve-fitting software that incorporates a simplex minimization algorithm.

[14] = molecular target: T2, nNOS with PSD95 (Mus musculus, UniProt Q62108+Q9Z0J4); conditions: WT but not nNOS −/− mice; cited from earlier work
T2 construct: host or cells: ischemic cortex of wild-type mice

[15] = molecular target: T1, PSD95-nNOS; conditions: as described for the control compound; cited from earlier work
[16] = tested on: rats; experiment: Morphine self-administration, FR1 schedule (preliminary study); assay type: in vivo, rat; conditions: morphine 0.1 mg/kg/injection

Sequence of PSD95-ERB4 (P78352 whole entry): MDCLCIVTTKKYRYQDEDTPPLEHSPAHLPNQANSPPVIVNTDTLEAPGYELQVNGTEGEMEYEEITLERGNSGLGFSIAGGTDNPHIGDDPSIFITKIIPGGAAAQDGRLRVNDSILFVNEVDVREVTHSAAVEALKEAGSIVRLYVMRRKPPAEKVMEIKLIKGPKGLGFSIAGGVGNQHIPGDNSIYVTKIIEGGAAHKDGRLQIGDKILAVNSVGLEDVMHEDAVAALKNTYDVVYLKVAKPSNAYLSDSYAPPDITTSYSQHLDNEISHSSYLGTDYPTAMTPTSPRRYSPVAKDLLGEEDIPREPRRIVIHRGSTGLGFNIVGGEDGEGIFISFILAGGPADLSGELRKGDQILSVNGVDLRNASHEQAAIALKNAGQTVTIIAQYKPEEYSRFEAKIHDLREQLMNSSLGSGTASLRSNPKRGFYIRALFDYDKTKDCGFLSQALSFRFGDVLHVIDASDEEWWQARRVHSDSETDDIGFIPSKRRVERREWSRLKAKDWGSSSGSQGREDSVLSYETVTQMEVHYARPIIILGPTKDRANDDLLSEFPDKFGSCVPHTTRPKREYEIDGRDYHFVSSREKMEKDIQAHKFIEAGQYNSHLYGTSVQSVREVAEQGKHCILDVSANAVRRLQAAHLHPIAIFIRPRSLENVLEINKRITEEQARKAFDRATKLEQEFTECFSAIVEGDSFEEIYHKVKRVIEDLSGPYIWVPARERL
T1 sequence (P78352 whole entry): as above
T1 sequence (P29475 whole entry): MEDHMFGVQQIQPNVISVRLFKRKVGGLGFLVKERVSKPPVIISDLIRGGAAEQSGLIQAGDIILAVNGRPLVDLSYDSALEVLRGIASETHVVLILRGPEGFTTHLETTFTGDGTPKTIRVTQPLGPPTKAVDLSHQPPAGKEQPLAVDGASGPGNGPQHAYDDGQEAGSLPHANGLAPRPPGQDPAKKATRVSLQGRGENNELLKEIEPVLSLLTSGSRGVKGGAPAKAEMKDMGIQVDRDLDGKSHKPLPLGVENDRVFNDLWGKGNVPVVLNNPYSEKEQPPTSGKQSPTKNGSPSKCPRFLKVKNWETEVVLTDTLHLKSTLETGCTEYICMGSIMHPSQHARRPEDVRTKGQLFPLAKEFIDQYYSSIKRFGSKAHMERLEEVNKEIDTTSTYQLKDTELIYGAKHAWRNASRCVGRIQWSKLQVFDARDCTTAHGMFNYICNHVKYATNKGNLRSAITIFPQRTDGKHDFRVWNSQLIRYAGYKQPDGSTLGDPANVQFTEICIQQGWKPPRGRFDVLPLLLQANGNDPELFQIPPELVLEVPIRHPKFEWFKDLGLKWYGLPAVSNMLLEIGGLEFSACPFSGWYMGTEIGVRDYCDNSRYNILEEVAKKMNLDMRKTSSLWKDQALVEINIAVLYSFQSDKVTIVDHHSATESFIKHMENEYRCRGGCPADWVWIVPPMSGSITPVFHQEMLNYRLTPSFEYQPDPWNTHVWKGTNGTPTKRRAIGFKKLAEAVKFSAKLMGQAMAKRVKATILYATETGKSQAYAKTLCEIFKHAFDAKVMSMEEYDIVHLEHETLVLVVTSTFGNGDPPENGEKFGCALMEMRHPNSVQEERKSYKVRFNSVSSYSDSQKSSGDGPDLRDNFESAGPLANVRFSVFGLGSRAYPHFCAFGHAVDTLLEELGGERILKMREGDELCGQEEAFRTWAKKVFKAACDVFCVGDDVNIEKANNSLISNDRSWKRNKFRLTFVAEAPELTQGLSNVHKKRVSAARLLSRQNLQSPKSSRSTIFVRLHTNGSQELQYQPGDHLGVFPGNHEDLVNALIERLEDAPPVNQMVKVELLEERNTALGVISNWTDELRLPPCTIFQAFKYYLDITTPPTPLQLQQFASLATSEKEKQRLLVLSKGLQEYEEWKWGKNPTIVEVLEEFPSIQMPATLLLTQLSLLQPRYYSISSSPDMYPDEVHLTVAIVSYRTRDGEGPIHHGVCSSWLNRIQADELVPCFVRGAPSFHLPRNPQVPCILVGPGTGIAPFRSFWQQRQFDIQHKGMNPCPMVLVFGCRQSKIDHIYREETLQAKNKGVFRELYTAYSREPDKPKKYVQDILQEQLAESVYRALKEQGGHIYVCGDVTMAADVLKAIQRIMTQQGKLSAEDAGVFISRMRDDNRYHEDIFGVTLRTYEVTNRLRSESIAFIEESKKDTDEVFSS
T2 sequence (Q9Z0J4 whole entry): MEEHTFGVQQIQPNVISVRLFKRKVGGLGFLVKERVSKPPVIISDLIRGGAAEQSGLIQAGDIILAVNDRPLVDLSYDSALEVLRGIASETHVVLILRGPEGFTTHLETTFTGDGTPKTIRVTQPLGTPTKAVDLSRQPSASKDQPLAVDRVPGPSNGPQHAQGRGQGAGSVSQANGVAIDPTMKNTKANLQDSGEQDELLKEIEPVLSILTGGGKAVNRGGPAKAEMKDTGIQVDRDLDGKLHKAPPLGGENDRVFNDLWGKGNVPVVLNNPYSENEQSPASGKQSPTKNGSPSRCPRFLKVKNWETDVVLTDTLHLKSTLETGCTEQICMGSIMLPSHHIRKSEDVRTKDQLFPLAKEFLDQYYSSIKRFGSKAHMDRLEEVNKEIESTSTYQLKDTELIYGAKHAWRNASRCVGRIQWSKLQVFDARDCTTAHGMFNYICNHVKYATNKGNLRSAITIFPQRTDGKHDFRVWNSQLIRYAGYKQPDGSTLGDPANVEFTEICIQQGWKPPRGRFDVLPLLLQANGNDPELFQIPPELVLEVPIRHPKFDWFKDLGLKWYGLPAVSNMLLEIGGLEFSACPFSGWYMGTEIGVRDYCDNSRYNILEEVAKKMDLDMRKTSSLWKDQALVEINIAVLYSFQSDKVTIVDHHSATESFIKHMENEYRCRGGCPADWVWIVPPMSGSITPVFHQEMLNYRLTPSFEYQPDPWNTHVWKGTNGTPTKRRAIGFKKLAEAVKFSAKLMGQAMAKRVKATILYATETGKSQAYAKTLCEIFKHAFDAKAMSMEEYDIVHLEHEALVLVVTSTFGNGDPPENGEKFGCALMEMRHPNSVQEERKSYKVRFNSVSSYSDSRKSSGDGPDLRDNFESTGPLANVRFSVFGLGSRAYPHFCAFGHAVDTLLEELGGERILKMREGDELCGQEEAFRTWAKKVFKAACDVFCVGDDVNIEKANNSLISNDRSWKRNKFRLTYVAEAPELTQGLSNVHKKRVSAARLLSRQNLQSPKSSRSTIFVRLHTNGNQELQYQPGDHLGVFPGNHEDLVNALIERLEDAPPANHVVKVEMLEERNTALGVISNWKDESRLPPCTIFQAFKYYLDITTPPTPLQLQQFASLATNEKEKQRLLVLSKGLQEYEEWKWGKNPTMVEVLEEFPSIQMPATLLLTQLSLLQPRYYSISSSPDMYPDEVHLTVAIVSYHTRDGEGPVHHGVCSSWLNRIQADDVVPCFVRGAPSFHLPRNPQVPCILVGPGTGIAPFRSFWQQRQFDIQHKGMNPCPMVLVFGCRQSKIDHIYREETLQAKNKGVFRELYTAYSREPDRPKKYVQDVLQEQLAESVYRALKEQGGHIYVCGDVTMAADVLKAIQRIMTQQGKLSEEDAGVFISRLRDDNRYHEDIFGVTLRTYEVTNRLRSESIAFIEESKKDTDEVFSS
T2 sequence (Q62108 whole entry): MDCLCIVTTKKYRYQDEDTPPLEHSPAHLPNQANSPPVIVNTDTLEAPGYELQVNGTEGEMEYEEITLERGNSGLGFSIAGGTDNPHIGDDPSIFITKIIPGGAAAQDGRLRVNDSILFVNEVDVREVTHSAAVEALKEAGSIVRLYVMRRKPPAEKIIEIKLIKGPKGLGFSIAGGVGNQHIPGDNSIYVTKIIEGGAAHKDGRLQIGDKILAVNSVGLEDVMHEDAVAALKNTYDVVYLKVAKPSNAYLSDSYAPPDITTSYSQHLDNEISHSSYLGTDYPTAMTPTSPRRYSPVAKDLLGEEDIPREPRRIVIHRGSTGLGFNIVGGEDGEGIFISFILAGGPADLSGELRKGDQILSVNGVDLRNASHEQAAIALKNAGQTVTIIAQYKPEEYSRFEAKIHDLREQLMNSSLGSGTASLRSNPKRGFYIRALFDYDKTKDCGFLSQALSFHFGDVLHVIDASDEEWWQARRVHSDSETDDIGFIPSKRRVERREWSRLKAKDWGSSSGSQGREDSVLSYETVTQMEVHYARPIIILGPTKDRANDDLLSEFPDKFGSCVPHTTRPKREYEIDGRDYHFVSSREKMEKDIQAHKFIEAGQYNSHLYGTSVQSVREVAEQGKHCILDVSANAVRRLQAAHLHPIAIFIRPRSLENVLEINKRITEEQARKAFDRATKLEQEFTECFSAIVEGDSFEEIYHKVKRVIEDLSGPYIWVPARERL

Which “memory in the Morris Water maze” value [1] does the source give for `Oc1c(Cl)cc(Cl)cc1CNc1ccc2[nH]nnc2c1` [IC87201] here?
The value was “do not impair memory”.

What about the “single trial CPP to the inhibitor alone” value [2] of the same compound?
Its value is “failed to do so”.

What about the “single trial morphine-induced CPP on acute co-treatment” value ([2]; morphine 6 mg/kg i.p.) of the same compound?
Its value is “blocked”.

What about the “conditioned place preference to morphine on coadministration” value [3] of the same compound?
The value was “conditioned place preference to morphine was no longer observed”.

What about the “pain hypersensitivity / pathological pain” value [4] of the same compound?
The value was “suppress pain hypersensitivity; also recorded: suppresses pathological pain”.

And the “nociceptive responding / basal nociceptive thresholds without injury” value [4]?
Its value is “without altering nociceptive responding; also recorded: without altering basal nociceptive thresholds”.

And the “NMDA-induced NO formation” value [5]?
The value was “inhibit NMDA-induced NO formation”.

And the “NMDA-stimulated cGMP levels” value [5]?
Its value is “suppressed NMDA-stimulated cGMP levels”.

And the “disruption of unrelated PSD95-ERB4 interactions” value [6]?
The value was “not unrelated PSD95-ERB4 interactions; also recorded: without disrupting interaction of PSD95 with unrelated proteins”.

What about the source memory [7] of the same compound?
Its source memory is “failed to impair spatial memory or source memory”.

What about the spatial working memory [7] of the same compound?
Its spatial working memory is “failed to impair spatial memory or source memory”.

What about the “motor performance in the rota-rod test” value [8] of the same compound?
The value was “did not impair”.

And the “memory in the novel object recognition test” value [9]?
The value was “did not impair memory”.

What about the “disruption of PSD95-nNOS interaction / binding” value [10] of the same compound?
The value was “disrupt PSD95-nNOS; also recorded: inhibited PSD95-nNOS binding”.

For `COC(=O)[C@@H](N)CCCNC(=N)N[N+](=O)[O-]` [L-NAME], which “L-arginine enhancement of acquisition of CPP to morphine” value ([11]; NOS inhibitor) is on record?
The value was “this enhancement was blocked”.

For `N=C(N)NCCC[C@H](N)C(=O)O` [L-arginine], which “acquisition of CPP to morphine” value ([11]; NO donor in the central amygdala) is on record?
Its value is “increased acquisition of CPP to morphine”.

For `C[C@]12N[C@H](Cc3ccccc31)c1ccccc12` [MK801, reference compound], which “NMDA-stimulated cGMP levels” value [5] is on record?
Its value is “suppressed NMDA-stimulated cGMP levels”.

And the “morphine-induced CPP” value ([11]; rats, MK801 0.1 mg/kg i.p., doses that do not alter chamber preference)?
The value was “blocked”.

What about the source memory [7] of the same compound?
The source memory was “eliminated (i.e. did not differ from chance)”.

And the spatial working memory [7]?
The spatial working memory was “unaffected”.

Which results are given for `O=C(O)c1ccc(NCc2cc(Cl)cc(Cl)c2O)cc1O` [ZL006]?
memory in the Morris Water maze [1]: do not impair memory; single trial CPP to the inhibitor alone [2]: failed to do so; single trial morphine-induced CPP on acute co-treatment ([2]; morphine 6 mg/kg i.p.): blocked; conditioned place preference to morphine on coadministration [3]: conditioned place preference to morphine was no longer observed; pain hypersensitivity / pathological pain [4]: suppress pain hypersensitivity; nociceptive responding / basal nociceptive thresholds without injury [4]: without altering nociceptive responding; ischemia induced damage [12]: inhibits ischemia induced damage; NMDA-induced NO formation [5]: inhibit NMDA-induced NO formation; NMDA-stimulated cGMP levels [5]: suppressed NMDA-stimulated cGMP levels; disruption of unrelated PSD95-ERB4 interactions [6]: not unrelated PSD95-ERB4 interactions; also recorded: without disrupting interaction of PSD95 with unrelated proteins; source memory [7]: failed to impair spatial memory or source memory; spatial working memory [7]: failed to impair spatial memory or source memory; motor performance in the rota-rod test [8]: did not impair; morphine-induced dopamine efflux on co-administration ([13]; ZL006 10 mg/kg i.p. with morphine 6 mg/kg i.p., NAc shell, FIG. 8C): blocked the morphine-induced increase in evoked DA in NAc shell; also recorded: suppresses morphine-induced dopamine efflux in nucleus accumbens shell; amount of DA released per stimulus pulse ([13]; ZL006 10 mg/kg i.p., FIG. 7C): does not affect the amount of DA released per stimulus pulse; amount of DA uptake per stimulus pulse ([13]; ZL006 10 mg/kg i.p., FIG. 7D): does not affect the amount of DA uptake per stimulus pulse; evoked DA response before and 30 min after drug ([13]; ZL006 10 mg/kg i.p., anesthetized rat, FIG. 8B, pilot data, 10 mg/kg): clear decrease in DA signal within 30 min; also recorded: decrease in DA evoked response; evoked dopamine (DA) efflux, drug alone ([13]; medial forebrain bundle stimulation, morphine 6 mg/kg i.p., ZL006 10 mg/kg i.p., FIG. 7A, 7B): does not increase dopamine (DA) efflux; association of nNOS with PSD95 in ischemic cortices [14]: inhibits the association of nNOS with PSD95 in ischemic cortices; memory in the novel object recognition test [9]: did not impair memory; disruption of PSD95-nNOS interaction / binding [10]: disrupt PSD95-nNOS; also recorded: inhibited PSD95-nNOS binding

With `O=C(O)c1cc(NCc2cc(Cl)cc(Cl)c2O)ccc1O` [ZL007, reference compound] as the compound, how does the “disruption of PSD95-nNOS interactions by the inactive analog” value [15] read?
Its value is “does not disrupt PSD95-nNOS interactions”.

Which “single trial CPP to the drug alone (morphine)” value ([2]; naïve rats, morphine 6 mg/kg i.p., FIG. 3A) does the source give for `CN1CC[C@]23c4c5ccc(O)c4O[C@H]2[C@@H](O)C=C[C@H]3[C@H]1C5` [morphine, reference compound] here?
The value was “robust single trial CPP”.

What about the “conditioned place preference to morphine, repeated pairings” value ([3]; morphine 6 or 10 mg/kg i.p. × 4 pairings, FIG. 4C, 4D) of the same compound?
Its value is “produced robust conditioned place preference”.

What about the “active versus inactive lever presses in self-administration” value ([16]; FR1, naïve, sham and neuropathic rats) of the same compound?
Its value is “Active lever presses were greater than inactive presses in all groups”.

And the mechanical thresholds ([16]; naïve rats, FIG. 6A)?
Its mechanical thresholds is “did not alter mechanical thresholds”.
